Source: patent US20070254882A1, “Sulfamide Derivatives and Pharmaceutical Composition for Upregulation of Lipid Metabolism Comprising Same” (CRYSTAL GENOMICS, INC., priority 2004, published 2007)

Each molecule was assayed against T1, human PPAR α (Homo sapiens, UniProt Q07869) (assay: Exogeneous PPAR α agonist assay (GAL4 DNA binding domain/PPAR α ligand binding domain, luciferase) in 293T cells). Conditions: 25 μM compound, 48 hours, luciferase activity increase relative to the control.
T1 construct: expressed in transfected cells; host or cells: HepG2 (ATCC HB-8065) or 293T cells (ATCC CRL-1573)
T1 sequence (Q07869 239-466 limits assumed): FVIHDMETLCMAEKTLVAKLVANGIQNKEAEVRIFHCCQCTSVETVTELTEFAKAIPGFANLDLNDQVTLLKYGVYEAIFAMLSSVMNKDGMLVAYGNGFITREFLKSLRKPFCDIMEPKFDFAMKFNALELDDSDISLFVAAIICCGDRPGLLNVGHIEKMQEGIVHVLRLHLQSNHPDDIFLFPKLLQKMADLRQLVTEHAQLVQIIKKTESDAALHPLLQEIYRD
Type: cell-based
Design: scale not given here
Experimental: Step 1) Exogeneous PPAR α Agonist Assay
Cross-activation assay of the compounds of Examples 1 to 134 against human PPAR α was carried out using a DNA construct of PPAR α including its ligand binding domain and GAL4 DNA binding domain (Sher et al., Biochemistry 32, 5598-5604, 1993) to analyze whether any of the compounds binds to the ligand binding domain of PPAR α expressed by the construct to affect the PPAR α activity. When the GAL4 DNA binding domainm which is fused with PPAR α ligand binding domain, binds to UAS (upstream activation sequence) of firefly-luciferase, the luciferase is expressed. Therefore, the effect of each of the compounds of Examples on PPAR α activation can be evaluated by analyzing the activation of luciferase.
Specifically, 2×10^4 of HepG2 (ATCC HB-8065) or 293T cells (ATCC CRL-1573) were aliquotted into each well of a 96-well plate and cultured for overnight at 37° C. in a CO2 incubator (culture condition: DMEM, 10% FBS and 1% antibiotics).
The transformation of PPAR α DNA was traced as follows. First, a mixture of the following ingredients in amounts per well; Solution A (Promega) containing 50 ng of full length human PPAR α DNA, 50 ng of firefly-luciferase construct, 5 ng of Renilla-luciferase construct, 1.0 μl of PLUS™ reagent, and 8.3 μl of a serum-free medium containing no antibiotics; was prepared and kept at room temperature for 15 min. Solution B, which contained 0.5 μl of Lipofectamine™ reagent and 9.5 μl of serum-free medium without antibiotics per well, and Solution C, which contained 50 μl of serum-free medium per well), were prepared. Solutions A, B and C were mixed together to prepare lipofectamin-DNA complex, and the mixture was kept at room temperature for 15 min. Single layer of cells on each well of a 96-well plate were washed with serum-free DMEM, 70 μl of lipofectamine-DNA complex prepared above was added thereto, the plate was incubated at 37° C. in a 5% CO2 incubator for 3 hours to transform the cells, and […] of a diluted solution of each of the compounds of Examples 1 to 134 per well was added to each well to a final concentration 25 μM, and incubated at 37° C. in a CO2 incubator for 48 hours. Then, the medium was removed, 50 μl of passive lysis buffer (Promega) was added thereto, and the plate was shook at room temperature for 20 min to lysis cells. 40 μl of Luciferase Assay reagent of Dual Luciferase Kit […] per 20 μl of cell lysis buffer was added to the plate, followed by reacting at 20° C. for 8 seconds, and 40 μl of Stop & Glo reagent (Promega) as a stop solution was added thereto to quench the reaction. The luminescence intensities of F-luciferase and R-luciferase were measured with MicroLumat Plus (Berthord Technology).

SMILES	Activity at 25 μM Step 1 293T cell
Cc1oc(-c2ccccc2)nc1COc1cccc(CN(CC(=O)O)S(=O)(=O)N(C)C)c1 [Example 3, [N—[(N,N-dimethylamino)sulfonyl]-N-[3-[(2-phenyl-5-methyloxazol-4-yl)methoxy]benzyl]amino]acetic acid]	2
Cc1ccc(-c2nc(COc3cccc(CN(CC(=O)O)S(=O)(=O)N(C)C)c3)c(C)o2)cc1 [Example 4, [N—[(N,N-dimethylamino)sulfonyl]-N-[3-[[2-(4-methylphenyl)-5-methyloxazol-4-yl]methoxy]benzyl]amino]acetic acid]	3
Cc1oc(-c2cccs2)nc1COc1cccc(CN(CC(=O)O)S(=O)(=O)N(C)C)c1 [Example 12, [N—(N,N-dimethylamino)sulfonyl-N-[3-[[2-(thiophen-2-yl)-5-methyloxazol-4-yl]methoxy]benzyl]amino]acetic acid]	2
Cc1nc(-c2ccc(C(F)(F)F)cc2)oc1COc1cccc(CN(CC(=O)O)S(=O)(=O)N(C)C)c1 [Example 13, [N—(N,N-dimethylamino)sulfonyl-N-[3-[[2-(4-trifluoromethylphenyl)-4-methyloxazol-5-yl]methoxy]benzyl]amino]acetic acid]	2
Cc1oc(-c2ccccc2)nc1COc1cccc(CN(CC(=O)O)S(=O)(=O)N(C)c2ccccc2)c1 [Example 14, [N—[(N-methyl-N-phenyl)amino]sulfonyl-N-[3-[(2-phenyl-5-methyloxazol-4-yl)methoxy]benzyl]amino]acetic acid]	2
Cc1ccc(-c2nc(COc3cccc(CN(CC(=O)O)S(=O)(=O)N(C)c4ccccc4)c3)c(C)o2)cc1 [Example 15, [N—[(N-methyl-N-phenyl)amino]sulfonyl-N-[3-[[2-(4-methylphenyl)-5-methyloxazol-4-yl]methoxy]benzyl]amino]acetic acid]	2
Cc1oc(-c2ccccc2)nc1COc1cccc(CN(CC(=O)O)S(=O)(=O)N(C)c2ccc(Cl)cc2)c1 [Example 18, [N—[[N-methyl-N-(4-chlorophenyl)]amino]sulfonyl-N-[3-[(2-phenyl-5-methyloxazol-4-yl)methoxy]benzyl]amino]acetic acid]	2
Cc1ccc(-c2nc(COc3cccc(CN(CC(=O)O)S(=O)(=O)N(C)c4ccc(Cl)cc4)c3)c(C)o2)cc1 [Example 19, [N—[[N-methyl-N-(4-chlorophenyl)]amino]sulfonyl-N-[3-[[2-(4-methylphenyl)-5-methyloxazol-4-yl]methoxy]benzyl]amino]acetic acid]	2
Cc1oc(-c2ccc(C(F)(F)F)cc2)nc1COc1cccc(CN(CC(=O)O)S(=O)(=O)N(C)c2ccc(Cl)cc2)c1 [Example 20, [N—[[N-methyl-N-(4-chlorophenyl)]amino]sulfonyl-N-[3-[[2-(4-trifluoromethylphenyl)-5-methyloxazol-4-yl]methoxy]benzyl]amino]acetic acid]	2
Cc1oc(-c2ccc(C(F)(F)F)cc2)nc1COc1cccc(CN(CC(=O)O)S(=O)(=O)N2CCCC2)c1 [Example 25, [N-(pyrrolidinyl)sulfonyl-N-[3-[[2-(4-trifluoromethylphenyl)-5-methyloxazol-4-yl]methoxy]benzyl]amino]acetic acid]	2
Cc1nc(-c2ccc(C(F)(F)F)cc2)oc1COc1cccc(CN(CC(=O)O)S(=O)(=O)N2CCCC2)c1 [Example 26, [N-(pyrrolidinyl)sulfonyl-N-[3-[[2-(4-trifluoromethylphenyl)-4-methyloxazol-5-yl]methoxy]benzyl]amino]acetic acid]	2
Cc1oc(-c2ccc(C(F)(F)F)cc2)nc1COc1cccc(CN(CC(=O)O)S(=O)(=O)N2CCN(C)CC2)c1 [Example 27, [N-(4-methyl-1-piperazinyl)sulfonyl-N-[3-[[2-(4-trifluoromethylphenyl)-5-methyloxazol-4-yl]methoxy]benzyl]amino]acetic acid]	1
